Test [1] addresses T1, H₁ receptor (Cavia porcellus, UniProt P31389).
T1 construct: A portion of terminal ileum was excised and immersed in a bath for isolated organ; from tissue; host or cells: guinea pig isolated terminal ileum
In words: Binding assay under saturation kinetics conditions (Scatchard). Set-up: species or system guinea pig. Conditions: in the presence of TFZ 2 x 10⁻⁷ M. As to the method: These assays (Scatchard) were carried out under the same incubation conditions and according to the conclusive test method described under paragraph 1a), with the exception that the radioligand concentration was changed according to a range of concentrations comprised between 0.3 and 10 nM, in the presence of a concentration of antagonist TFZ of 2 x 10⁻⁷ M.

Test [2] addresses T1, H₁ receptor. Kind of test: Functional activity on guinea pig isolated ileum, histamine-induced contractions. The test is classed as cell-based. As to the method:
(§1) The test was essentially meant to characterize the type of activity of the molecules under examination by checking their antagonist activity versus H₁ receptor. To this end, the guinea pig isolated ileum was used for two different tests: a) evaluation of the antagonist activity towards the agonist histamine; b) evaluation of the antagonist activity towards the agonist acetylcholine. Said tests were carried out to check the specificity and selectivity levels of the moleculas under examination.
(§2) Male and female guinea pigs weighing approx. 250 g were used. A portion of terminal ileum was excised and immersed in a bath for isolated organ, in Tyrode solution, at 37°C. The antagonist activity was evaluated by determining the ability of the studied drug to modify the dose-effect curve built with increasing doses of agonist alone. Furthermore, in another series of experiments, increasing doses of the molecules under examination were tested in comparison with a submaximal dose of agonist.
The dose of histamine used was 6.8x10⁻⁸ M. The percentage of inhibition found after adding the tested drug to the bath for isolated organ versus the response obtained from the agonist alone was calculated. Six detections were carried out for each drug concentration. The results, calculated in terms of IC₅₀, corresponded to the drug concentrations responsible for a 50% reduction in the submaximal concentration of the agonist alone.

Test [3] has as its system muscarinic cholinergic receptor. In words: Functional activity on guinea pig isolated ileum, acetylcholine-induced contractions. The conditions noted are these: TFZ 5 x 10⁻⁷ M, dose corresponding to the IC₅₀ effective against histamine. Format: cell-based. As to the method:
as §1, §2
With a view to estimating the antagonist specificity level of the molecule TFZ under examination and taking into account the anticholinergic activity often associated with antihistaminic molecules, the capability of TFZ of antagonizing the acetylcholine (ACh) contraction effect on guinea pig isolated ileum was tested. […]

T1 sequence (P31389 whole entry): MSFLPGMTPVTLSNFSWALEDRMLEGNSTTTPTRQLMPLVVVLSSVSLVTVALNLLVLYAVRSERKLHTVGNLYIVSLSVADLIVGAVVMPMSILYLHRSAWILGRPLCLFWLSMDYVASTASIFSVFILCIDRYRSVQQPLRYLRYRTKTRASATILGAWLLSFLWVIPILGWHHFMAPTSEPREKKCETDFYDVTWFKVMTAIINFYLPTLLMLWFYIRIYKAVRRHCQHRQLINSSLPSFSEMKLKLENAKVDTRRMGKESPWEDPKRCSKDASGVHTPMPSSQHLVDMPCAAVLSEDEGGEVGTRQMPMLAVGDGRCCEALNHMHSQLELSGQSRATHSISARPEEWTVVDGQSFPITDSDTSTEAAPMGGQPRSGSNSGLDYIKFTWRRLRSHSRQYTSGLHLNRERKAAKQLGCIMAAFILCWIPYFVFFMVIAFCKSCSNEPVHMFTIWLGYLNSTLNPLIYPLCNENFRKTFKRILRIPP

In the case of `CC(C)(c1ccc(C(O)CCCN2CCC(C(O)(c3ccccc3)c3ccccc3)CC2)cc1)c1nn[nH]n1` (racemic) [TFZ, p-1-hydroxy-4-(4-hydroxydiphenylmethyl-1-piperidinyl)-butyl-2-(1H-tetrazol-5-yl)-isopropyl benzene], the “Bmax (density of the binding sites)” value on H₁ receptor [1] was “no significant change”. At H₁ receptor [2] (histamine 6.8 x 10⁻⁸ M, comparison in words, numbers only in Fig. 5), the “IC₅₀, inhibition of histamine-submaximal contraction” value is on record as “completely superimposable to that of MET I”. The “agonist activity (contraction of the ileum smooth muscles)” value on H₁ receptor [2] (increasing doses added to the bath perfusion liquid, no agonist) is reported as “no agonist activity”. In addition, the “type of antagonist activity towards histamine (Lineweaver-Burk)” value on H₁ receptor [2] (three TFZ concentrations, Fig. 4) is “competitive antagonist activity”. Also, in test [3], the “inhibitory activity against acetylcholine (ACh) contraction effect” value was “no inhibitory activity”.

The values are drawn from patent EP0648759A1, “Antihistaminic compounds, process for their preparation and pharmaceutical compositions containing them” (ERREGIERRE S.p.A., priority 1993, dated 1995).
